The test system of this data set is PC12 cells. As to the kind of experiment: Etoposide-induced apoptosis in PC12 cells, cell viability. Type of data set: cell-based. The note with it: etoposide-induced apoptosis, PC12 cells; for viability at 0.1 µM / viability at 0.3 µM / viability at 1 µM / viability at 3 µM / viability at 10 µM / viability at 30 µM: Rattus norvegicus, PC-12; for viability at 0.1 µM / % Viability 0.1 μM: 0.1 μM compound, vehicle 52.1 ± 7.32; for viability at 0.3 µM / % Viability 0.3 μM: 0.3 μM compound; for viability at 1 µM / % Viability 1 μM: 1 μM compound; for viability at 1 µM: read-out: % Viability 1 μM; for viability at 3 µM / % Viability 3 μM: 3 μM compound; for viability at 3 µM: read-out: % Viability 3 μM; for viability at 10 µM / % Viability 10 μM: 10 μM compound; for viability at 10 µM: read-out: % Viability 10 μM; for viability at 30 µM / % Viability 30 μM: 30 μM compound; for viability at 30 µM: read-out: % Viability 30 μM.

A word on the viability: it is a read-out of living cells in per cent, often relative to untreated cells. As for `C#CCOC(=O)Nc1ccc(NCc2ccc(F)cc2)nc1N` [NK-45-1, Prop-2-yn-1-yl (2-amino-6-((4-fluorobenzyl)amino)pyridin-3-yl)carbamate], the viability at 0.1 µM was 60.4 ± 1.29%, the viability at 0.3 µM came out at 57.5 ± 3.95%, the viability at 1 µM worked out at 64.9 ± 11.7% and the viability at 3 µM came out at 61.9 ± 9.82%. Moreover, the viability at 10 µM turned out to be 65.4 ± 10.7% and the viability at 30 µM is 64.8 ± 3.9%.

As for “Ethyl (6-((4-fluorobenzyl)amino)-4-methylpyridin-3-yl)carbamate [NK-48-3]”, the “% Viability 0.1 μM” value was found to be 54.78 ± 2.77%, the “% Viability 0.3 μM” value is listed as 57.46 ± 4.02%, the “% Viability 1 μM” value is given as 57.03 ± 1.81% and the “% Viability 3 μM” value turned out to be 53.80 ± 1.98%. In addition, the “% Viability 10 μM” value is reported as 57.06 ± 4.28% and the “% Viability 30 μM” value stood at 63.25 ± 3.32%.

For “Hexyl (2-amino-6-((4-fluorobenzyl)amino)pyridin-3-yl)carbamate [NK-42-1]”, the “% Viability 0.1 μM” value turned out to be 60.08 ± 3.34%, the “% Viability 0.3 μM” value came out at 59.19 ± 4.95%, the “% Viability 1 μM” value is on record as 87.30 ± 18.26% and the “% Viability 3 μM” value amounted to 78.46 ± 11.29%. For the same compound, the “% Viability 10 μM” value turned out to be 85.14 ± 11.29% and the “% Viability 30 μM” value stood at 78.95 ± 13.17%.

With `Nc1nc(NCc2ccc(F)cc2)ccc1NC(=O)OCC(Cl)(Cl)Cl` [NK-46-1, 2,2,2-trichloroethyl (2-amino-6-((4-fluorobenzyl)amino)pyridin-3-yl)carbamate], the viability at 0.1 µM worked out at 74.1 ± 9.21%, the viability at 0.3 µM was found to be 108 ± 12.7%, the viability at 1 µM turned out to be 94.9 ± 8.18% and the viability at 3 µM is 77.2 ± 8.19%. The viability at 10 µM was 83.9 ± 18% and the viability at 30 µM came out at 113 ± 3.53%.

Regarding `CCOC(=O)Nc1ccc(NCc2ccc(OC(F)(F)F)cc2)nc1N` [JG-33-4, Ethyl (2-amino-6-((4-(trifluoromethoxy)benzyl)amino)pyridin-3-yl)carbamate], the viability at 0.1 µM worked out at 71.3 ± 16.1%, the viability at 0.3 µM is 81.6 ± 10.9%, the viability at 1 µM amounted to 79.8 ± 12.8% and the viability at 3 µM came out at 95.3 ± 14.6%. Also, the viability at 10 µM amounted to 88.9 ± 12.6% and the viability at 30 µM was 82.4 ± 12.6%.

For `CCOC(=O)Nc1ccc(NCc2ccc(F)cc2)nc1` [NK-31-3], the viability at 1 µM came to 109 ± 35.9%, the viability at 3 µM is 110 ± 19.4%, the viability at 10 µM is 101 ± 15.9% and the viability at 30 µM came to 69.3 ± 14.9%.

`CCOC(=O)Nc1ccc(N2CCOCC2)nc1N` [JG-41-4, Ethyl (2-amino-6-morpholinopyridin-3-yl)carbamate]: the viability at 1 µM came to 85.8 ± 15.5%, the viability at 3 µM was 88.7 ± 13.5%, the viability at 10 µM was found to be 78.9 ± 14.3% and the viability at 30 µM amounted to 63.9 ± 12.4%.

`CCOC(=O)Nc1ccc(NCc2ccc(C)cc2C)nc1N` [NK-65-3, Ethyl (2-amino-6-((2,4-dimethylbenzyl)amino)pyridin-3-yl)carbamate]: the viability at 0.1 µM worked out at 55.5 ± 11.3%, the viability at 0.3 µM was 56.9 ± 18.4%, the viability at 1 µM stood at 61.8 ± 9.82% and the viability at 3 µM amounted to 87.9 ± 11.4%. Besides, the viability at 10 µM is 85.7 ± 13.2% and the viability at 30 µM was determined as 65.7 ± 19%.

For `CCOC(=O)Nc1ccc(NCc2cccc(OC)c2)nc1N` [NK-67-3, Ethyl (2-amino-6-((3-methoxybenzyl)amino)pyridin-3-yl)carbamate], the viability at 0.1 µM worked out at 59.2 ± 3.98%, the viability at 0.3 µM is 48.6 ± 9.49%, the viability at 1 µM is 82.8 ± 19.8% and the viability at 3 µM came to 87.5 ± 15%. The viability at 10 µM turned out to be 70.1 ± 3.36% and the viability at 30 µM came to 63.8 ± 14%.

For the compound `Nc1nc(NCc2ccc(F)cc2)ccc1NC(=O)OCC1c2ccccc2-c2ccccc21` [NK-43-1, (9H-fluoren-9-yl)methyl (2-amino-6-((4-fluorobenzyl)amino)pyridin-3-yl)carbamate], the viability at 0.1 µM was determined as 67.5 ± 6.34%, the viability at 0.3 µM was 63.9 ± 6.2%, the viability at 1 µM was 69 ± 10.3% and the viability at 3 µM was 56.4 ± 8.99%. For the same compound, the viability at 10 µM came out at 66.7 ± 5.97% and the viability at 30 µM was 49.7 ± 1.76%.

With `CCOC(=O)Nc1ccc(NC(C)c2ccccc2)nc1N` (stereo not drawn) [NK-52-3, Ethyl (2-amino-6-((1-phenylethyl)amino)pyridin-3-yl)carbamate], the viability at 0.1 µM is 50 ± 1.04%, the viability at 0.3 µM was determined as 56 ± 4.21%, the viability at 1 µM was 56.7 ± 5.69% and the viability at 3 µM was 66.2 ± 4.77%. Also, the viability at 10 µM was 53.2 ± 2.3% and the viability at 30 µM was 24 ± 6.78%.

`CCOC(=O)Nc1ccc(NCc2cc(F)cc(C(F)(F)F)c2)nc1N` [JG-38-4, Ethyl (2-amino-6-((3-fluoro-5-(trifluoromethyl)benzyl)amino)pyridin-3-yl)carbamate]: the viability at 0.1 µM came out at 69 ± 13.6%, the viability at 0.3 µM was found to be 64.7 ± 12.5%, the viability at 1 µM stood at 69.7 ± 14.9% and the viability at 3 µM amounted to 72.9 ± 13.2%. Moreover, the viability at 10 µM was determined as 90.1 ± 15.1% and the viability at 30 µM came to 78.2 ± 12.5%.

`CCOC(=O)Nc1ccc(NCc2ccccc2)nc1N` [AM-2-3, Ethyl (2-amino-6-(benzylamino)pyridin-3-yl)carbamate]: the viability at 0.1 µM turned out to be 83.2 ± 21.9%, the viability at 0.3 µM is 87.5 ± 1.65%, the viability at 1 µM turned out to be 93.5 ± 5.31% and the viability at 3 µM was 78.6 ± 10.8%. In addition, the viability at 10 µM was determined as 92.2 ± 3.97% and the viability at 30 µM is 88.8 ± 5.02%.

As to `CCOC(=O)Nc1ccc(NCc2ccc(SC(F)(F)F)cc2)nc1N` [AM-8-3, Ethyl (2-amino-6-((4-((trifluoromethyl)thio)benzyl)amino)pyridin-3-yl)carbamate], the viability at 0.1 µM worked out at 69 ± 9.99%, the viability at 0.3 µM turned out to be 92.6 ± 9.23%, the viability at 1 µM turned out to be 82.3 ± 7.02% and the viability at 3 µM was found to be 79.2 ± 23.6%. In addition, the viability at 10 µM was found to be 89.1 ± 2.16% and the viability at 30 µM is 110 ± 15.3%.

As to `Nc1nc(NCc2ccccc2C(F)(F)F)ccc1NC(=O)OCC(Cl)(Cl)Cl` [JG-35-4, 2,2,2-trichloroethyl (2-amino-6-((2-(trifluoromethyl)benzyl)amino)pyridin-3-yl)carbamate], the viability at 1 µM turned out to be 92.2 ± 37.2%, the viability at 3 µM turned out to be 108 ± 7.32%, the viability at 10 µM was 93.2 ± 21.6% and the viability at 30 µM stood at 71.6 ± 20.8%.

Regarding `CCOC(=O)Nc1ccc(NCc2ccc3ccccc3c2)nc1N` [AM-5-3, Ethyl (2-amino-6-((naphthalen-2-ylmethyl)amino)pyridin-3-yl)carbamate], the viability at 0.1 µM was 70.5 ± 24.2%, the viability at 0.3 µM was 76.9 ± 20.8%, the viability at 1 µM was 81.7 ± 12.6% and the viability at 3 µM was determined as 57.6 ± 6.35%. For the same compound, the viability at 10 µM stood at 65.1 ± 22.6% and the viability at 30 µM came to 103 ± 1.31%.

With `CC(C)(C)OC(=O)Nc1ccc(NCc2ccc(F)cc2)nc1N` [NK-13-1, tert-butyl 6-(4-fluorobenzylamino)-2-aminopyridin-3-ylcarbamate], the viability at 0.1 µM came to 53.5 ± 9.17%, the viability at 0.3 µM stood at 47.6 ± 3.19%, the viability at 1 µM was 57.2 ± 13.6% and the viability at 3 µM stood at 42.2 ± 6.03%. The viability at 10 µM was 68.1 ± 21.6% and the viability at 30 µM is 64.4 ± 12.8%.
